Results reported in US20230075521A1, “RESVERATROL PHARMACEUTICAL COMPOSITIONS AND METHODS OF USE THEREOF” (priority 2021, published 2023).

Test system: 3×Tg-AD mice
Test: Behavior battery, long-term prophylactic treatment
Type: in vivo, mouse
Settings: 50 mg/kg oral, at 6 or 10 months of age
Procedure: For long-term prophylactic studies, a cohort of 30 mice was used (50% males and females). […] JOTROL™ and RSV were prepared under red light and administered using a red syringe and metal gavage to prevent light exposure. Mice were treated 5 days a week for 9 months beginning at 4 months of age (prior to disease development). As detailed below, a battery of behavioral tests was conducted, including Y-maze spontaneous alternation, open field, rotarod, novel object recognition, Barnes maze, and object location memory. A battery of behavior tests designed to test motor coordination skills, anxiety, spatial learning and reference memory was performed on all long-term-treated mice. Motor coordination was evaluated using rotarod. Anxiety was evaluated by open field and elevated 0-maze tests. […] Motor coordination was assessed by the latency to fall on the very first trial between treatment groups. Motor learning was measured both within and between sub-jects by comparing the first trial with subsequent trials and is evident as an increased latency to fall over time. […] Distance, velocity, and time in center versus periphery were recorded and analyzed. Anxiety-related behavior can be determined by the duration spent in the center of the field versus the periphery. […] Total arm entries and percent of spontaneous alternations were recorded. […]

## Oc1ccc(/C=C/c2cc(O)cc(O)c2)cc1 [RSV, (trans-)resveratrol]
  Y-maze spontaneous alternation performance: No significant group differences
